In PMC9767310 (Journal of chemical information and modeling, 2022):
Entries after “also recorded” stand apart in the source; their conditions may differ. Structures can show the parent of a compound that is named as a salt. Each block holds one compound with its values, some of them ahead of it.

Key:
αVβ3 [1] = biological target: T1, αVβ3 (Homo sapiens, UniProt P05106+P06756); experiment: αVβ3-mediated cell adhesion to fibrinogen; assay type: cell-based
αVβ3 [2] = biological target: T1, αVβ3; experiment: Monoclonal antibody AP5 binding assay; assay type: cell-based
[3] = biological target: recombinant αVβ3 ectodomain (Homo sapiens, UniProt P05106+P06756); experiment: Negative-stain electron microscopy of αVβ3 ectodomain conformation

SMILES: OCC[C@@H]1CN(c2ccnc3ccccc23)CCN1Cc1ccc2c(n1)NCCC2 [MSR01R, (R)-2-(4-(quinolin-4-yl)-1-((5,6,7,8-tetrahydro-1,8-naphthyridin-2-yl)methyl)piperazin-2-yl)ethan-1-ol hydrochloride]
- IC50 (αVβ3 [1]): 1300 ± 330 nM

SMILES: OCC[C@H]1CN(c2ccnc3ccccc23)CCN1Cc1ccc2c(n1)NCCC2 [MSR01S, (S)-2-(4-(quinolin-4-yl)-1-((5,6,7,8-tetrahydro-1,8-naphthyridin-2-yl)methyl)-piperazin-2-yl)ethan-1-ol hydrochloride]
- IC50 (αVβ3 [1]): 1000 ± 300 nM

SMILES: Cl.Cl.O=C(NCCCc1ccc2c(n1)NCCC2)Nc1ccnc2ccccc12 [MSR03, 1-(quinolin-4-yl)-3-(3-(5,6,7,8-tetrahydro-1,8-naphthyridin-2-yl)propyl)urea dihydrochloride]
- IC50 (αVβ3 [1]): 1600 ± 580 nM
- increase in potency vs ZINC72424116 (αVβ3 [1]; adhesion IC50): 3.5 fold
- EC50 (αVβ3 [2]; EC50 (half-maximal exposure of the AP5 epitope), MSR03 dihydrochloride prepared in 1 M NaCl, n = 3): > 300000 nM
- exposure of the AP5 epitope (in words) (αVβ3 [2]; HEK-αVβ3 cells): did not expose the AP5 epitope; also recorded: does not expose the epitope for the ligand-induced binding site of antibody AP5
- receptor extension and swing-out by negative-stain EM (in words) [3]: does not induce receptor extension and swing-out
- percentage of αVβ3 in the active, extended-open conformation ([3]; 312 μM, control 5%): did not increase this percentage

Further lines, results first:

- inhibition of αVβ3-mediated cell adhesion (positive control) (αVβ3 [1]; 3 nM): > 90%
SMILES: COc1ccc([C@H](CC(=O)O)N2CCN(CCCc3ccc4c(n3)NCCC4)C2=O)cn1 [MK-429, reference compound]

- IC50 (αVβ3 [1]): 2000 ± 1730 nM
SMILES: c1ccc2c(N3CCN(Cc4ccc5c(n4)NCCC5)CC3)ccnc2c1 [MSR02, 7-((4-(quinolin-4-yl)piperazin-1-yl)methyl)-1,2,3,4-tetrahydro-1,8-naphthyridine]
